Read-outs that look alike come from different tables or passages of the source.
Key:
CFTR ΔF508 = molecular target: T1, CFTR ΔF508 (Homo sapiens, UniProt P13569, DEL508-508); experiment: Chronic TECC assay, primary bronchial epithelial cells from CF patients homozygous for CFTR ΔF508; format: cell-based; settings: for activity at 3 µM: read-out: % Activity at 3 μM (AUC**); for EC50: chronic TECC, with co-corrector and potentiator, AUC = full area under the curve upon forskolin stimulation
T1 construct: bronchial epithelial cells isolated from CF patients homozygous for the CFTR ΔF508 mutation; McGill University; Asterand; University of North Carolina hAEC-CF; host or cells: primary human bronchial epithelial cells from CF patients homozygous for ΔF508
Method: The TECC (Tranepithelial Clamp Circuit, EP-design) assay measures the functionality of the cystic fibrosis Transmembrane Conductance regulator (CFTR) by measuring the short circuit current (Isc) generated over the basolateral and apical membrane of lung epithelial cells. In TECC the transepithelial potential PD and transepithelial resistance (Rt) are measured in an open circuit and transformed to Ieq using Ohm's law. 24 Wells can be measured simultaneously allowing a higher throughput compared to Ussing chambers.
For this purpose, bronchial epithelial cells isolated from CF patients homozygous for the CFTR ΔF508 mutation (hAEC-CF, Epithelix, Geneva, Switzerland; McGill University, Montreal, Qc; Asterand, Detroit, Mich.; University of North Carolina, Chapel Hill, N.C.) are plated on type IV collagen-coated Transwell® supports (Costar).
For electrophysiological recording of the “chronic” experiments, the human airway epithelia are mounted in the TECC heating plate for electrophysiological measurement and kept at 37° C. The epithelia are bathed in a NaCl-Ringer solution (120 mM NaCl, 25 mM NaHCO3, 1.2 mM CaCl2), 1.2 mM MgCl2, 0.8 mM KH2PO4, 0.8 mM K2HP04, pH 7.4, 5 mM glucose) on both the basolateral and apical sides. Test compounds (corrector, co-corrector, 4-[(2R,4R)-4-({[1-(2,2-difluoro-1,3-benzodioxol-5-yl)cyclopropyl]carbonyl}amino)-7-(difluoromethoxy)-3,4-dihydro-2H-chromen-2-yl]benzoic acid, and potentiator, N-(3-carbamoyl-5,5,7,7-tetramethyl-4,7-dihydro-5H-thieno[2,3-c]pyran-2-yl)-1H-pyrazole-5-carboxamide), are re-added to the recording solution prior to measurement. […] Apical amiloride is used to inhibit the endogenous ENaC currents while forskolin is applied on both apical and basolateral side to stimulate CFTR. Measurements are done during a 20 minute timeframe with recordings every 2 minutes. The increase in Ieq is used as a measure for the increased CFTR activity, EC50 values can be generated by measuring impact of different concentrations of compound on Ieq on primary cells, for this purpose each transwell is treated with a different compound concentration. […] Raw data were normalized to percentage activity values using the equation: 100×(Sample−Negative control)/(Positive control−Negative Control).

ΔF508-CFTR = molecular target: T2, ΔF508-CFTR (Homo sapiens, UniProt P13569, DEL508-508); experiment: CFTR cell surface levels using HRP-tagged ΔF508-CFTR expressing CFBE cells, intrinsic corrector capacity; format: cell-based; set-up: % Activation: concentration or dose not given beside the values; settings: HRP-tagged ΔF508-CFTR expressing CFBE41o- cells; compounds alone (intrinsic corrector capacity); 20 hours at 33° C.
T2 construct: host or cells: CFBE41o- cells, doxycycline-inducible expression
Text: Measuring CFTR Cell Surface Levels Using HRP-Tagged ΔF508-CFTR Expressing CFBE Cells
The HRP-tagged ΔF508-CFTR cell assay measures the expression of CFTR-ΔF508 at the plasma membrane. CFTR-ΔF508 has a folding defect leading to absence of protein at the plasma membrane. This assay is used to evaluate the capacity of compounds to increase the expression of CFTR-ΔF508 at the plasma membrane. […] When HRP-tagged ΔF508-CFTR is present at the plasma membrane, the HRP enzyme activity can be measured. The amount of CFTR-ΔF508 that can be rescued to the plasma membrane is correlated with the amount of functional enzyme that can be measured.
There are several ways to measure the capacity of compounds to rescue CFTR-ΔF508 to the plasma membrane; either compounds are evaluated on their own and the impact on plasma membrane levels is measured or compounds are evaluated in combination with a co-corrector, i.e. a compound that rescues CFTR-ΔF508 to the plasma membrane but rescue can be enhanced by addition of compounds due to a complementary mode of action.
Activity of Compounds for their Intrinsic Corrector Capacity:
On day four, L test compounds diluted in PBS were added to the plates at a final DMSO concentration of 0.1%. All compound plates contained negative controls (DMSO) and positive controls ([…] corrector, 3-[(2R,4R)-4-({[1-(2,2-difluoro-1,3-benzodioxol-5-yl)cyclopropyl]carbonyl}amino)-7-methoxy-3,4-dihydro-2H-chromen-2-yl]benzoic acid). Cell plates were incubated at 33° C., 5% CO2 for 20 hours. […] After incubation for 15 minutes in the dark, chemiluminescence was measured using a plate reader (EnVision®, Perkin Elmer). Raw data were normalized to percentage activity values using the equation: 100×(Sample−Negative control)/(Positive control−Negative Control).

[1] = read-out: % Activity at 1 μM (AUC**)

T1 sequence (P13569 with tags, fused parts or gaps DEL508-508): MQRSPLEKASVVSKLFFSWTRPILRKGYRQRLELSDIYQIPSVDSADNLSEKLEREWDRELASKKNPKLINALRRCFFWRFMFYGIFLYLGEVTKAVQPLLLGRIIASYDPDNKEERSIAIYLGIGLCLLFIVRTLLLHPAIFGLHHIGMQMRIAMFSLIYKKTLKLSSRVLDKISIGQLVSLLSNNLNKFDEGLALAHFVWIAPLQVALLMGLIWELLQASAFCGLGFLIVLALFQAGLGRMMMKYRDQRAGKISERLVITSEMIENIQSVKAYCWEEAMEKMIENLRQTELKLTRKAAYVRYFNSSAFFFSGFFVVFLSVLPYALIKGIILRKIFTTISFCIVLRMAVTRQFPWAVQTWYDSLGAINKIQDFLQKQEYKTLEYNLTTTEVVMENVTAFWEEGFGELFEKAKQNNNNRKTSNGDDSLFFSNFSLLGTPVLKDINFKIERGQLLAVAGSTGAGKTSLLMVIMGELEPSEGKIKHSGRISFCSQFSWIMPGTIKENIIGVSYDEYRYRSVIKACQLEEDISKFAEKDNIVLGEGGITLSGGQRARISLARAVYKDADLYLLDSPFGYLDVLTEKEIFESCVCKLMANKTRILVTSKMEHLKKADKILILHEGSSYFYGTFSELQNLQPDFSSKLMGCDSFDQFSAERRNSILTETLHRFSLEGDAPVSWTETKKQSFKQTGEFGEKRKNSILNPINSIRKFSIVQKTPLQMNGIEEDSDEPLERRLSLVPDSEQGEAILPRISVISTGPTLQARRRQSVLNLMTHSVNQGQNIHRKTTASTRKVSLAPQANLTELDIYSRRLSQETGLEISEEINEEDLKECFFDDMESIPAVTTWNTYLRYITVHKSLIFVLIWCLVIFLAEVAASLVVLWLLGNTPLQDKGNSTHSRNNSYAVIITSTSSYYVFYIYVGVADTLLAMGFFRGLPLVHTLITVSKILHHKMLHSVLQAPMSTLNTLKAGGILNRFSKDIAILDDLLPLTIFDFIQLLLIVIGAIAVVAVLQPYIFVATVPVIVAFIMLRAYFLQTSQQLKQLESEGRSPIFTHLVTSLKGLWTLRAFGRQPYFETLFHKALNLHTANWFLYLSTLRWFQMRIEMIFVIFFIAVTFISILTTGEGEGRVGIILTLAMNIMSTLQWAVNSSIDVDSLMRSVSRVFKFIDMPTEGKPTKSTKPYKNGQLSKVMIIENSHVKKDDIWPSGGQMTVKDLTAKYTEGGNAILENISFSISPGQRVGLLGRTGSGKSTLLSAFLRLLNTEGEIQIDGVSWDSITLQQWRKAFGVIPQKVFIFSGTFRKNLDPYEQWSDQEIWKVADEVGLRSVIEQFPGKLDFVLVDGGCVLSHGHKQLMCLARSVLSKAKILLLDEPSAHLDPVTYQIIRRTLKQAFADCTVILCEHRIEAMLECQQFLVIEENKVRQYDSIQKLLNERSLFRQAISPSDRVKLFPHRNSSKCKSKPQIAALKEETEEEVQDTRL
T2 sequence (P13569 with tags, fused parts or gaps DEL508-508): as above

## CS(=O)(=O)NC(=O)c1cc(-c2ccc(N3CCC(C#N)CC3)nc2)c2c(C3CCC3)nn(-c3ccccc3)c2n1 [Compound 71, 4-[6-(4-cyanopiperidin-1-yl)pyridin-3-yl]-3-cyclobutyl-N-(methanesulfonyl)-1-phenyl-H-pyrazolo[3,4-b]pyridine-6-carboxamide]
CFTR ΔF508; read-out: % Activity at 1 μM (Ieq*)
  activity at 1 µM: 270%

## COCC1CCN(c2cc(C(=O)NS(C)(=O)=O)nc3c2c(C2CCC2)nn3-c2ccccc2)CC1 [Compound 185, 3-cyclobutyl-N-(methanesulfonyl)-4-[4-(methoxymethyl)piperidin-1-yl]-1-phenyl-1H-pyrazolo[3,4-b]pyridine-6-carboxamide]
CFTR ΔF508; [1]
  activity at 1 µM: 453%

## CS(=O)(=O)NC(=O)c1cc(N2CCC(N3CCOCC3)CC2)c2c(C3CCC3)nn(-c3ccccc3)c2n1 [Compound 328, 3-cyclobutyl-N-(methanesulfonyl)-4-[4-(morpholin-4-yl)piperidin-1-yl]-1-phenyl-1H-pyrazolo[3,4-b]pyridine-6-carboxamide]
CFTR ΔF508; [1]
  activity at 1 µM: 532%
CFTR ΔF508
  activity at 3 µM: 423%

## CS(=O)(=O)NC(=O)c1cc(N2CCC(CCN3CCOCC3)CC2)c2c(C3CCC3)nn(-c3ccccc3)c2n1 [Compound 331, 3-cyclobutyl-N-(methanesulfonyl)-4-{4-[2-(morpholin-4-yl)ethyl]piperidin-1-yl}-1-phenyl-1H-pyrazolo[3,4-b]pyridine-6-carboxamide]
CFTR ΔF508; [1]
  activity at 1 µM: 537%

## CS(=O)(=O)NC(=O)c1cc(N2CCC(N3CCCCC3)CC2)c2c(C3CCC3)nn(-c3ccccc3)c2n1 [Compound 365, 4-([1,4′-bipiperidin]-1′-yl)-3-cyclobutyl-N-(methanesulfonyl)-1-phenyl-1H-pyrazolo[3,4-b]pyridine-6-carboxamide]
CFTR ΔF508
  activity at 3 µM: 522%

## COCC1CCN(c2cc(C(=O)NS(=O)(=O)CCO)nc3c2c(C2CCC2)nn3-c2ccccc2)CC1 [Compound 366, 3-cyclobutyl-N-(2-hydroxyethanesulfonyl)-4-[4-(methoxymethyl)piperidin-1-yl]-1-phenyl-1H-pyrazolo[3,4-b]pyridine-6-carboxamide]
CFTR ΔF508; [1]
  activity at 1 µM: 428%

## COCC1CN(C2CCN(c3cc(C(=O)NS(=O)(=O)N(C)C)nc4c3c(C3CCC3)nn4-c3ccc(F)cc3)CC2)CCO1 (stereo not drawn) [Compound 379, 3-cyclobutyl-N-(dimethylsulfamoyl)-1-(4-fluorophenyl)-4-{4-[2-(methoxymethyl)morpholin-4-yl]piperidin-1-yl}-1H-pyrazolo[3,4-b]pyridine-6-carboxamide]
CFTR ΔF508; [1]
  activity at 1 µM: 370%

## O=C(NS(=O)(=O)N1CCOCC1)c1cc(N2CCC(CN3CCCC3)CC2)c2c(C3CCC3)nn(-c3ccccc3)c2n1 [Compound 380, 3-cyclobutyl-N-(morpholine-4-sulfonyl)-1-phenyl-4-{4-[(pyrrolidin-1-yl)methyl]piperidin-1-yl}-1H-pyrazolo[3,4-b]pyridine-6-carboxamide]
CFTR ΔF508
  activity at 3 µM: 250%

## O=C(NS(=O)(=O)N1CCOCC1)c1cc(N2CCC(N3CCOCC3)CC2)c2c(C3CCC3)nn(-c3ccccc3)c2n1 [Compound 383, 3-cyclobutyl-N-(morpholine-4-sulfonyl)-4-[4-(morpholin-4-yl)piperidin-1-yl]-1-phenyl-1H-pyrazolo[3,4-b]pyridine-6-carboxamide]
CFTR ΔF508
  activity at 3 µM: 299%

## CNS(=O)(=O)NC(=O)c1cc(N2CCC(N3CCOCC3)CC2)c2c(C3CCC3)nn(-c3ccc(F)cc3)c2n1 [Compound 517, 3-cyclobutyl-1-(4-fluorophenyl)-N-(methylsulfamoyl)-4-[4-(morpholin-4-yl)piperidin-1-yl]-H-pyrazolo[3,4-b]pyridine-6-carboxamide]
CFTR ΔF508
  activity at 3 µM: 309%

## CC(C)Oc1nn(C2CCCCC2)c2nc(C(=O)NS(C)(=O)=O)cc(-c3ccc(C(=O)N4CC5CNCC5C4)cc3)c12 (stereo not drawn) [Compound 631, 1-cyclohexyl-4-[4-(hexahydropyrrolo[3,4-c]pyrrole-2(1H)-carbonyl)phenyl]-N-(methanesulfonyl)-3-[(propan-2-yl)oxy]-1H-pyrazolo[3,4-b]pyridine-6-carboxamide]
CFTR ΔF508; [1]
  activity at 1 µM: 157%

## CN(C(=O)c1cc(N2CCC(N3CCOCC3)CC2)c2c(C3CCC3)nn(-c3ccccc3)c2n1)S(C)(=O)=O [Compound 656, 3-cyclobutyl-N-(methanesulfonyl)-N-methyl-4-[4-(morpholin-4-yl)piperidin-1-yl]-1-phenyl-1H-pyrazolo[3,4-b]pyridine-6-carboxamide]
CFTR ΔF508
  activity at 3 µM: 198%

## COCC1CCN(c2cc(C(=O)N(C)S(C)(=O)=O)nc3c2c(C2CCC2)nn3-c2ccccc2)CC1 [Compound 657, 3-cyclobutyl-N-(methanesulfonyl)-4-[4-(methoxymethyl)piperidin-1-yl]-N-methyl-1-phenyl-1H-pyrazolo[3,4-b]pyridine-6-carboxamide]
CFTR ΔF508
  activity at 3 µM: 358%

## CCS(=O)(=O)N(C)C(=O)c1cc(N2CCC(N3CCOCC3)CC2)c2c(C3CCC3)nn(-c3ccccc3)c2n1 [Compound 658, 3-cyclobutyl-N-(ethanesulfonyl)-N-methyl-4-[4-(morpholin-4-yl)piperidin-1-yl]-1-phenyl-1H-pyrazolo[3,4-b]pyridine-6-carboxamide]
CFTR ΔF508
  activity at 3 µM: 260%

## CCS(=O)(=O)NC(=O)c1cc(-c2ccc(OC)cc2)c2c(C)nn(-c3ccccc3)c2n1 [compound 15]
ΔF508-CFTR
  % Activation: 151.675%

## CCS(=O)(=O)NC(=O)c1cc(-c2cnc(N(C)C)nc2)c2c(C3CN(C(=O)OC)C3)nn(C3CCCCC3)c2n1 [compound 52]
ΔF508-CFTR
  EC50: 11500 nM

## CC(C)c1nn(C2CCCCC2)c2nc(C(=O)NS(C)(=O)=O)cc(-c3ccc(N4CCC(F)(F)C4)nc3)c12 [compound 64]
ΔF508-CFTR
  EC50: 835 nM

## CS(=O)(=O)NC(=O)c1cc(N2CC3(CCOCC3)C2)c2c(C3CCC3)nn(-c3ccccc3)c2n1 [compound 204]
ΔF508-CFTR
  EC50: 978 nM

## Cc1nn(C2CCCCC2)c2nc(C(=O)NS(=O)(=O)C3CC3)cc(-c3ccc(N4CCOCC4)cc3)c12 [compound 239]
ΔF508-CFTR
  EC50: 99.2 nM

## CN(C)S(=O)(=O)NC(=O)c1cc(OCC2CCOCC2)c2c(C3CCC3)nn(-c3ccccc3)c2n1 [compound 334]
CFTR ΔF508
  EC50: 100 nM

## CC(C)N1CCN(C2CCN(c3cc(C(=O)NS(=O)(=O)N(C)C)nc4c3c(C3CCC3)nn4-c3ccc(F)cc3)CC2)CC1 [compound 382]
CFTR ΔF508
  EC50: 100 nM

## COCCS(=O)(=O)NC(=O)c1cc(-c2ccc(CN3CCOCC3)cc2)c2c(OC(C)C)nn(C3CCCCC3)c2n1 [compound 405]
ΔF508-CFTR
  % Activation: 181.2%

## CC(C)Oc1nn(C2CCCCC2)c2nc(C(=O)NS(=O)(=O)N(C)C)cc(-c3ccc(CN4CCOCC4)cc3)c12 [compound 406]
ΔF508-CFTR
  % Activation: 160.8%

## COCCS(=O)(=O)NC(=O)c1cc(N2CCC(N3CCOCC3)CC2)c2c(C3CCC3)nn(-c3ccc(F)cc3)c2n1 [compound 407]
ΔF508-CFTR
  % Activation: 125.95%

## CN(C)S(=O)(=O)NC(=O)c1cc(N2CCC(CN3CCOCC3)CC2)c2c(C3CCC3)nn(-c3ccc(F)cc3)c2n1 [compound 409]
ΔF508-CFTR
  % Activation: 272.74%

## CN1CCN(Cc2cc(C(=O)NS(C)(=O)=O)nc3c2c(C2CCC2)nn3-c2ccc(F)cc2)CC1 [compound 518]
ΔF508-CFTR
  EC50: 10000 nM

From patent US20190202823A1, “N-SULFONYLATED PYRAZOLO[3,4-b]PYRIDIN-6-CARBOXAMIDES AND METHOD OF USE” (AbbVie S.à.r.l., priority 2015, published 2019)
